The text below walks through data of a melting point compilation (Tetko et al.; mined from patent text by program, amines drawn as free bases though some values may be those of a salt).

Regarding `O=C(Nc1cc(C(F)(F)F)cc(C(F)(F)F)c1)[C@H]1CC=CC[C@H]1C(=O)O` (relative stereo), the melting point fell in the range of 166 to 167 °C.
`COC(=O)c1ccc(-c2cccc(C(=O)OC)c2)cc1` had a melting point of 86 to 87 °C.
The figure for `Cc1ccc(-c2csc(NC(=O)Nc3nc(-c4ccc(C)cc4)cs3)n2)cc1` is greater than 300 °C.
For `COc1ccccc1N1CCN([C@@H]2Cc3c(O)cccc3C[C@H]2O)CC1` (relative stereo) the value was 218 to 220 °C.
For the compound `C=CCON=C(CCC)C1=C(O)CC(c2ccc(C(=O)SCC)cc2)CC1=O` (configuration not stated), the melting point fell in the range of 72 to 75 °C.
For `CC(=O)NC[C@H]1CN(c2ccc(N3CCC(n4nnnc4CC(=O)N4CCOCC4)CC3)c(F)c2)C(=O)O1` the value was 146 to 148 °C; for `NCC1CCN(CC(=O)Nc2cccc3c2C(=O)c2c-3n[nH]c2-c2ccc(N3CCNCC3)cc2)CC1`, 239 °C; for `CCCCNC1NC(=O)N(c2cccc(C(F)(F)F)c2)C(=O)N1`, 245 to 247 °C.
`COc1ccc(N2CCN(c3c(C)c(C)c4c(c3C)C(O)(c3ccc5ccccc5c3)C(C)(C)O4)CC2)cc1` (configuration not stated): the melting point lay in the range of 189 to 190 °C.
The figure for `CN1C(=O)c2[nH]c3cc(Cl)ccc3c2Oc2ccccc21` is 306 to 307 °C.
For `Cc1cc(-n2ccnc2)c2cccc(OCc3c(Cl)ccc(S(=O)(=O)N4CCC[C@H]4C(=O)NCC4CCN(CCCCO)CC4)c3Cl)c2n1` the value was 112 °C.
For `O=C1CCCC1c1ccc(Cl)cc1` (configuration not stated) the value was 154 to 155 °C; for `COc1ccc(Cl)cc1C1(O)C(=O)Nc2cc(C(F)(F)F)ccc21` (configuration not stated), 207 to 210 °C; for `N[C@@H](Cc1ccc(C(F)(F)F)cc1)[C@H](O)c1cccc(F)c1` (racemic), 81 to 82 °C.
`CS/C(NC(=O)c1ccc(SC)cc1)=C(\C#N)C(=O)Nc1ccc(C)cc1` returned a melting point of 173 to 175 °C.
With `Cc1sc(-n2cccc2)c(C#N)c1C`, the melting point is 45 °C.
For `O=[N+]([O-])c1ccc2c(c1)N(c1nnn[nH]1)CC2` the value was 262 to 270 °C; for `CCCC1CCN(CCCCC(=O)c2cc(Cl)c(N)cc2OCc2cc(OC)cc(OC)c2)CC1`, 119 to 120 °C; for `COc1cc(COc2cc(N)c(Cl)cc2C(=O)CCCCN2CCC(C)CC2)cc(OC)c1`, 136 to 137 °C.
The figure for `CCOC(=O)CCc1cc(O)nn1CC(C)C` is 102 to 103 °C; for `O=C(O)Cc1cccc(NC(=O)NCC(=O)N2[C@@H](c3cccc(O)c3)CC[C@H]2c2ccccc2)c1` (racemic) it is 166 °C; for `COC(=O)C1CCCN(COS(C)(=O)=O)c2c1cc(O)c1ccccc21` (configuration not stated) it is 113 to 115 °C.
The figure for `Clc1ccc(N2CCN(Cc3cn4cc(Br)ccc4n3)CC2)c(Cl)c1` is 137 to 138 °C; for `COc1ccc(NCc2c(F)c(F)c(C(F)(F)F)c(F)c2F)cc1C(=O)O` it is 94 °C.
`NCc1cc2c(Oc3ccc(Cl)cc3)cncc2s1` yielded a melting point of 78.6 to 79.8 °C.
The figure for `CCOC(=O)C(=Cc1cccn2cc(-c3cccc(OC)c3)nc12)N=[N+]=[N-]` is 109 to 111 °C; for `Cn1cc(C2=C(c3c4n(c5ccccc35)CCC(CNC=O)C4)C(=O)NC2=O)c2ccccc21` (configuration not stated) it is 332 to 334 °C.
For the compound `CC(O)CN1C(C)(C)CC(O)CC1(C)C` (configuration not stated), the melting point was in the range of 97 to 98 °C.
For `CCn1cc(-c2c(-c3ccccc3F)nn3ccncc23)ccc1=O` the value was 173 to 174 °C; for `Cc1ccc(S(=O)(=O)OCC2CN(c3cc(F)c(N4CCN(C(=O)OC(C)(C)C)CC4)c(F)c3)C(=O)O2)cc1` (configuration not stated), 150 to 152 °C.
Regarding `Cc1cccc(CC(N)(CF)C(=O)O)c1O` (configuration not stated), the melting point amounted to 168 °C.
For `CC(=O)c1cc2ccccc2cc1C(=O)O` the value was 145 °C; for `CCOC(=O)Nc1cc2c(c(N)n1)N=C(c1ccccc1)[C@@H](C)N2`, 148 to 151 °C.
For `O=C(O)c1ccc(-c2cnc(-c3ccc(C(F)(F)F)cc3)o2)cc1` the value was 253 to 254 °C; for `CSc1nc(N)c(C(N)=S)s1`, 192 to 195 °C; for `Nc1cc(I)cnc1Cl`, 129 °C.
For `O=C(O)C(O)c1ccccc1Nc1c(Cl)cccc1Cl` (configuration not stated) the value was 140 to 142 °C; for `Cn1cnc2c1c(=O)n(CCCCCCOc1ccc(Cl)cc1)c(=O)n2C`, 97 to 98 °C; for `CCc1c(N)c(C(N)=O)nn1C1CN(C(C)C)C1`, 195 to 200 °C.
`O=C(NNS(=O)(=O)c1ccccc1)c1ccc(F)cc1Cl` came in with a melting point of 147 to 149 °C.
For `COc1ccc(COCC(O)Cc2cccnc2)cc1` (configuration not stated) the value was 55 to 56 °C.
Take `CC(C)(C)OC(=O)CCC1CC(O)C(=O)N1` (configuration not stated): the melting point was 94 to 95 °C.
`CN(C)C=C(C=O)c1ccccc1Cl` registered a melting point of 86.5 to 88.5 °C.
The figure for `CCn1c(=S)c2[nH]c(C(C)C)nc2n(CC)c1=O` is 168 to 170 °C; for `O=[N+]([O-])c1c(C2C=CCCC2)ccnc1Cl` (configuration not stated) it is 54.5 to 55.4 °C; for `COc1ccc(Cl)cc1C(C)(C)O` it is 56 °C.
The figure for `Cc1ccc(-c2nc3n(n2)Cc2ccccc2-3)cc1` is 207 to 208 °C; for `CCCOc1ccc(Br)cc1-c1nc2cc3nc[nH]c3cc2c(=O)[nH]1` it is 154 to 155 °C; for `CCCCOS(C)(=O)=O` it is 100 to 101 °C.
The figure for `CN(C)C1CCCN(C(=O)c2ccc(-c3[nH]nc4c3C(=O)c3c(NC(=O)NN5CCOCC5)cccc3-4)s2)C1` (configuration not stated) is greater than 300 °C.
On to `COC(=O)c1ccccc1-c1noc(-c2ccc(OC)cc2)n1`, for which the melting point is 73 to 75 °C.
The figure for `Cc1ccc(Nc2c(F)cccc2Cl)c(CC(=O)O)c1` is 152 to 154 °C.
The figure for `CCC1(O)c2ccccc2C=Cc2ccccc21` is 63 to 65 °C; for `O=C(c1ccccc1)c1cccc2c1CCC2C(=O)O` (configuration not stated) it is 100 to 102 °C; for `CCn1c(=O)c2nc(C=O)cn2c2ccccc21` it is 302 to 306 °C.
The figure for `CS(=O)(=O)c1ccc(Oc2cc(OC3CCOCC3)c3[nH]c(C4=NCC(CC(N)=O)S4)cc3c2)cn1` (configuration not stated) is 136 to 138 °C; for `CC(C)(C)OC(=O)Nc1ccc(-c2ccccc2)cc1N` it is 137 °C; for `CCC(CC)N1CC2=C3C(=NN(c4ccc(C(C)C)cc4Br)C(=O)N3CC2)C(C)=N1` it is 149 to 150 °C.
On to `COc1ccc(S(=O)(=O)N2Cc3ccccc3N(C(=O)c3ccc(-n4ccc(C)n4)cc3Cl)CC2C(=O)NO)cc1` (configuration not stated), for which the melting point lay in the range of 189 to 191 °C.
For `O=S(=O)(Cl)c1ccc(Oc2ccc(Br)cc2)cc1` the value was 80.9 °C; for `CC1Cc2cc3c(cc2C(c2ccc([N+](=O)[O-])cc2)=NN1c1ncon1)OCO3` (configuration not stated), 190 to 196 °C.
The figure for `CC(c1ncnc(Cl)c1F)C(O)(Cn1cncn1)c1ccc(F)cc1F` (configuration not stated) is 92 °C.
The figure for `CC#CCOc1ccc(S(=O)(=O)NC(Cc2c[nH]c3ccc(C)cc23)C(=O)O)cc1` (configuration not stated) is 45 to 46 °C.
The compound `C[C@H]1C=CC2=C[C@@H](O)C[C@H](OC(=O)C(C)(C)Oc3ccccc3)[C@@H]2[C@H]1CC[C@@H]1C[C@@H](O)CC(=O)O1` returned a melting point of 155 to 158 °C.
For `O=C1C(=O)c2ccccc2C2=C1SCC1(CCN(Cc3ccc(F)cc3F)CC1)O2` the value was 104 to 107 °C.
The figure for `O=C(c1cc(=O)c2c(OCCOc3ccccc3)cccc2o1)N1CCN(CCO)CC1` is 191 °C; for `N#CC(Sc1nc2ccccc2[nH]1)c1ccccn1` (configuration not stated) it is 166 to 167 °C; for `CC(=O)C(C)n1nc(C(=O)NC2CN(C)CCN(Cc3ccccc3)C2)c2ccccc21` (configuration not stated) it is 97 to 100 °C.
The figure for `C[C@H]1CCCC(C)(C)[C@@H]1[C@H](O)c1ccc(OC(F)(F)F)cc1` is 29 to 33 °C.
As to `Cc1c(CNCC(C)C)[nH]c2c(C)c(NC(=O)c3ccc(OC[C@@H]4CCCO4)cc3)ccc12`, the melting point was in the range of 118 to 119 °C.
For `O=C(c1cccs1)c1cnn2c(-c3cccc(-c4nnn(CC5CCC5)n4)c3)ccnc12` the value was 170 °C.
For `CN1CCN(c2ccc(C(=O)C(C)(C)N3CCN(C)CC3)cc2)CC1` the value was 133 to 136 °C; for `O=C(O)CCCCCCCn1nnc(-c2ccccc2)c1-c1ccccc1`, 103 to 104 °C.
The figure for `CCCCCCCCCCCCCCOc1ccc(C(=O)Cl)cc1OCCCCCCCCCCCCCC` is 68 to 70 °C.
`CC1(C)OC(=C(C#N)C#N)C(C#N)=C1c1ccc(C#C[Si](C)(C)C)cc1` displayed a melting point of 201 °C.
`COc1ccccc1OC1CCN(C(=O)Cl)C1` (configuration not stated) registered a melting point of 80 to 81 °C.
Take `Cc1nc2cccc(OCC(C)(C)C(=O)NCC3CC3)c2c(N)c1C(=O)O`: the melting point was in the range of 177 to 179 °C.
The figure for `COC(=O)CCCn1sc(Cl)cc1=O` is 54 to 56 °C; for `Cc1c(N2CC[C@@H](C3(NC(=O)OC(C)(C)C)CC3)C2)cc(O)c2c(=O)c(C(=O)O)cn([C@@H]3C[C@@H]3F)c12` it is 203 to 206 °C.
For `O=C1c2c(O)cccc2C(SCCS)c2cccc(O)c21` the value was 133 to 134 °C; for `Cc1occc1C(=O)Nc1ccc(C(=O)N2Cc3ccccc3Cc3ccccc32)cc1`, 202 to 204 °C.
The compound `CCOC(=O)CCCCCC(=O)NCc1cccc2c1C(=O)N(C1CCC(=O)NC1=O)C2=O` (configuration not stated) came in with a melting point of 82 to 84 °C.
For `Fc1cc(CC2(Cc3ccncc3)c3cccnc3-c3sccc32)ccn1` (configuration not stated) the value was 192 to 193 °C.
`CC(C)n1cc(-c2nc(C(=O)O)c(N)nc2-c2ccc(F)cc2)ccc1=O` registered a melting point of 222 °C.
For `O=S(=O)(c1ccccc1)N(CCCN1CC=C(c2ccccc2)CC1)c1ccccc1` the value was 112 °C; for `O=C(O)C1CN(CCCS(=O)(=O)O)CCN1` (configuration not stated), 190 to 191 °C; for `Cc1cccc(C(=O)Nc2cc(-c3c(-c4ccc(F)c(C)c4)nc4cccnn34)ccn2)c1`, 203 to 204 °C.

A word on the melting point: it is the temperature, or range, at which the solid turns liquid.
